Read-outs that look alike come from different tables or passages of the source. Where only a bound is given, the exact number is not on record here.

The subject of data set [1] is Porcine aortic endothelial cells. Conditions: 25 mg/ml, in words; cited from earlier work.
In data set [2] the test system is clot formation induced by API in human blood. Conditions: for Clot formation / clotting time versus no additives: 0.01 and 0.1 mg/ml, in words. The protocol: Blood was drawn from four healthy volunteers into Vacutainer™ tubes containing citrate. Whole blood (980 μl) was incubated with 2 μl of API at 37° C. in polypropylene sample cups in a ReoRox™ rheometer (Global Haemostasis International, Gothenburg, Sweden). […] Every 6 s, the cup was set into free torsional oscillation around its vertical axis, and the damping and frequency of the oscillation was registered. Clotting time was identified as the point of maximal damping.

Data set [3] deals with IBMIR triggered by API in fresh human blood. As to conditions: 1 mg/ml, 60 min API perfusion. On the procedure:
This protocol is basically performed as previously described with some modifications. In general words, loops made of PVC (diameter 6.3 mm, length 390 mm), whose inner surface was furnished with immobilized heparin, were used. The tubing was held together with a specially designed heparinized connector. A circular loop was formed when the ends of the connector were tightly pushed into the lumen of the tubing ends. A rocking apparatus, placed in a 37° C. incubator, was used to generate blood flow inside the loops. The loops were rocked at a setting that prevented the blood from coming in contact with the connectors.
Seven 60-min islet experiments were performed, using API isolated from four different pigs. […] For each experiment, one loop containing fresh human blood and saline without API was included as a control. […] Concurrently, pre-incubation of human blood with 1 mg/ml of LMW-dextran, which was not sulfated, was tested in five experiments. In each experiment, 7 ml of fresh human blood from the same donor was added to each loop. […] Thereafter, the loops were opened, and 100 μl of saline with or without 5 μl of API (approximately 5,000 IEQ) was added to the loops and followed by another 60-min incubation on the rocking device at 37° C. Blood glucose levels were measured with a glucometer (Glucometer Elite; Bayer Diagnostics, Leverkusen, Germany) before the perfusion.
After every perfusion, the loop contents were filtered through 70 μm-diameter filters (Filcons, Cuptype; DAKO, Denmark). Both macroscopic blood clots and tissue recovered on the filters were snap-frozen in isopentane for immunohistochemical staining. The remaining filtered blood was collected in 4.1 mM EDTA (final concentration) and used for hematological analysis (platelets, lymphocytes, monocytes, and granulocytes) and assays of coagulation activation (thrombin-antithrombin [TAT], factor XIa-antithrombin complexes [FXIa-AT], and factor XIIa-antithrombin complexes [FXIIa-AT]), fibrinolysis activation (plasmin-alpha 2 antiplasmin complexes [PAP]), complement activation (C3a and sC5b-9), and C1 esterase inhibitor activation (factor XIa-C1 esterase inhibitor [FXIa-C1 INH], factor XIIa-C1 esterase inhibitor [FXIIa-C1 INH]). Samples taken at 0, 15, and 30 min were also analyzed. In 0-min samples, the blood was not added to the tubing loop but was instead transferred immediately to the EDTA-containing tubes. The blood samples were centrifuged at 4° C. at 3290×g for 20 min, and the plasma was collected and stored at −70° C. until analyzed.
Platelet counts and differential leukocyte counts were analyzed on a Coulter ACT-diff analyzer (Beckman Coulter, Fla., USA) using EDTA-treated blood. TAT and PAP were quantified using commercially available enzyme immunoassays (EIA) kits (Enzygnost TAT, Behringswerke, Marburg, Germany; Imuclone® PAP, American Diagnostica Inc., Greenwich, USA). FXIa-AT, FXIIa-AT, FXIa-C1 INH, and FXIIa-C1 INH were analyzed according to the method of Sanchez et al.. C3a was analyzed as previously described by Nilsson Ekdahl et al., and sC5b-9 was analyzed using a modification of the EIA described by Mollnes et al..

Data set [4] deals with STZ-induced diabetic mice. Conditions: intraperitoneal, intrahepatic islets, in words; cited from earlier work.
In the next data set the test system is pig lungs. As to conditions: 2 mg/ml; HAR after 30 min without; cited from earlier work.
For data set [5] the following is noted: cited from earlier work.
The mark [6] stands for this setting: continuous injection about 45 mg/hour, in words.

Consider CMDB25 dextran sulfate, for which the “Complement activation and cytolytic complex deposition on the cells” value in data set [1] is on record as “inhibited”.

Turning to “High molecular weight dextran sulfate [HMW-DS]”, the “Clot formation / clotting time versus no additives” value in data set [2] is “inhibited clot formation only at 0.1 mg/ml”. The Clotting time in data set [2] (experiment 1, 0.01 mg/ml) was 15.8 min; in data set [2] (experiment 1, 0.1 mg/ml) it was greater than 60 min; in data set [2] (experiment 2, 0.01 mg/ml), 36.9 min; in data set [2] (experiment 2, 0.1 mg/ml), greater than 60 min; in data set [2] (experiment 3, 0.01 mg/ml) it was 21.0 min; in data set [2] (experiment 3, 0.1 mg/ml), greater than 60 min. In addition, the Clotting time in data set [2] (experiment 4, 0.01 mg/ml) is 38.3 min; in data set [2] (experiment 4, 0.1 mg/ml), greater than 60 min.

On to “Low molecular weight dextran [LMW-D, reference compound]”, for which the “Clot formation / clotting time versus no additives” value in data set [2] is “extended the clotting time to only a minor degree”. Moreover, in data set [2] (experiment 1, 0.01 mg/ml), the Clotting time came to 19.2 min. For the same substance, the Clotting time in data set [2] (experiment 1, 0.1 mg/ml) was 25.2 min. Besides, in data set [2] (experiment 2, 0.01 mg/ml), the Clotting time is 11.3 min. In data set [2] (experiment 2, 0.1 mg/ml), this substance registered a Clotting time of 25.8 min. Moreover, in data set [3] (in words), the “Effect on IBMIR” value was “only a marginal effect”. Moreover, in data set [3] (Table 4 comparison, n = 5), the “C3a” value turned out to be 1490.3 ± 406.4 ng/mL, the “FXIa-AT” value worked out at 1.09 ± 0.08 µmol/L, the “Granulocytes (×10^9/l)” value is 1.90 ± 0.43 ×10^9/l and the “Lymphocytes (×10^9/l)” value is recorded as 2.14 ± 0.32 ×10^9/l. In data set [3] (Table 4 comparison, n = 5), the “Monocytes (×10^9/l)” value was 0.29 ± 0.08 ×10^9/l, the “Platelets (×10^9/l)” value is listed as 44.9 ± 18.7 ×10^9/l, the “TAT” value amounted to 4429.2 ± 2002.5 µg/mL and the “sC5b-9 (AU/ml)” value is on record as 157.3 ± 19.1 AU/ml.

For the substance Native dextran, the “Complement activation and cytolytic complex deposition on the cells” value in data set [1] is on record as “no such an effect”.

Consider dextran sulfate, for which the “Effect of dextran sulfate alone on hyperglycemia” value in data set [4] is recorded as “some beneficial effect in a few mice”. In the data set on pig lungs, the Lung survival result is “about 200 min”.

Regarding “dextran sulfate [dextran sulfate (MW 8 000 Da)]”, in data set [5] (continuous injection about 45 mg/hour for 2-3 weeks), the Blood concentration result was “approximately 0.01 mg/ml”. In data set [5] (setting [6]), the Alopecia entry is “reported in about half of the patients” and the Thrombocytopenia entry was “observed after 3 days treatment”.

For the substance “high molecular weight dextran [HMW-D, reference compound]”, the “Clot formation / clotting time versus no additives” value in data set [2] is “extended the clotting time to only a minor degree”. In addition, the Clotting time is recorded as 19.8 min in data set [2] (experiment 1, 0.01 mg/ml); 14.2 min in data set [2] (experiment 1, 0.1 mg/ml); 13.8 min in data set [2] (experiment 2, 0.01 mg/ml); 33.2 min in data set [2] (experiment 2, 0.1 mg/ml).

Source of the values: US8906884B2, “Method of treating graft-rejection using dextran sulfate” (TX Medic AB, priority 2002, dated 2014).
